These results are taken from patent US6406870B2, “Methods and compositions for modulating heterotypic E-cadherin interactions with T lymphocytes” (The Brigham and Women's Hospital, Inc., priority 1994, dated 2002).

For assay [1], the system named is IEL adhesion to 16E6.A5 epithelial cells. The experiment in a line: IEL adhesion to 16E6.A5 epithelial cell monolayers. It counts as cell-based, human. Conditions: epithelial cell monolayers pretreated with cytokine. Here is the method: Monolayers of adherent cells were grown in flat bottomed 96-well Linbro tissue culture plates. 10^4 adherent cells in 100 μl complete media were added per well and allowed to grow for two to three days until they reached confluence. Just prior to the addition of IEL or transfected COS 7 cells, the adherent cell monolayers were washed with assay media. To label IEL and COS-7 cells, 25 μg of 2′,7′-bis-(2-carboxyethyl)-5 (and -6)-carboxyfluorescein (BCECF-AM, Molecular Probes, Inc., Eugene, Oreg.) was diluted in 5 μl DMSO and added to a suspension of 5×10^6/ml IEL or COS-7 cells in complete media. The cells were incubated at 37° C. for 25 minutes then washed twice in assay media (PBS containing 1 mM CaCl2, 2 mM MgCl2 and 10 mM HEPES). After washing, 50,000 labeled IEL or COS-7 cells in 100 μl of assay media were added to the adherent cell monolayers. IEL or COS-7 cells were allowed to settle onto adherent cell monolayers for 25 or 40 min. at 37° C. Unbound cells were removed by flicking media from the plate. Bound cells were detected using a Fluorescence plate reader (IDEXX Co., Portland, Me.). If antibody blocking was performed, the IEL, COS-7 cells, epithelial cell monolayers, or L-M monolayers were pre-incubated with a 1:250 dilution of ascites fluid or 10 μg/ml of purified mAb for five minutes at 37° C. prior to encounter with the second cell type. At least four replicates were performed. The % cells bound was calculated by reading the fluorescence units obtained after unbound cells were washed off, dividing this number by the input fluorescence units and multiplying by 100. […] In adhesion assays where divalent cations were varied, the IEL were washed with Ca^++ and Mg^++ free Hank's balanced salt solution (HBSS) and pre-equilibrated with HBSS containing the indicated concentrations of MgCl2, MnCl2, or CaCl2 for 10 min. at 37° C. prior to incubation with 16E6.A5 monolayers which had been washed with Ca^++ and Mg^++ free HBSS. Disruption of T84 cell intercellular tight junctions.
The 16E6.A5 cell line was derived by immortalization of the 76N normal epithelial cell line through transfection of the E6 and E7 genes of human papilloma virus (by V. Band, Tufts University, publically available). Monolayers of these adherent cells are grown in flat-bottomed 96-well Linbro tissue culture plates. […] Bound cells are detected using a Fluorescence plate reader (IDEXX Co., Portland Me.). […] The % cells bound is calculated by reading the fluorescence units obtained after unbound cells are washed off and dividing this number by the input fluorescence units obtained after adding 50,000 cells/well and multiplying by 100. Serial dilutions of labeled cells have shown that as few as 1000 cells can be detected in the linear range.

Assay [2] relates to homotypic E-cadherin adhesion. As to conditions: soluble recombinant protein produced in insect cells; cited from earlier work.
Assay [3] deals with integrin expression on IEL lines. Put plainly: FACS analysis of integrin expression on cultured IEL. As to conditions: culture of IEL lines with TGF-β1. It counts as cell-based, human. The source says:
Human intestinal tissue was obtained from fatal accident organ donors or from adult patients undergoing resection for colorectal carcinoma, from sections at least 10 cm away from macroscopically detectable lesions. IEL were isolated as described previously (Davies M. D. J. et al. (1981) Gut 22:481; Parker C. et al. (1992) Proc. Natl. Acad. Sci. USA 89:1924). once isolated, the IEL were stimulated with phytohemagglvtinin-P (PHA:Difco) and irradiated feeder cells (80% peripheral blood mononuclear cells and 20% JY lymphoblastoid cells) in Yssel's medium (Yssel H. et al. (1984) J. Immunol. Methods 72:219) containing 2 nM recombinant interleukin (IL)-2 (gift of Ajinomoto, Kawasaki, Japan), 4% (vol/vol) conditioned medium (Brenner M. et al. (1987) J. Immunol. 138:1502), 4% (vol/vol) fetal calf serum (Hyclone), and 50 AM 2-mercaptoethanol at 10% Co2. […] Two different anti-CD8 mAb (OKT8, CD8α; and T8/2T85H7, CD8β) were used to discriminate between expression of the CD8 αα homodimer and the CD8 αβ heterodimer. In agreement with previously reported data (Jarry A. et al. (1990) Eur. J. of Immunol. 20(5):1097), 10% of the CD8^+ cells expressed the homodimer. Thus, the lines were thought to be highly purified IEL preparations. Long term culture of the 032891 and 390I IEL lines was maintained by intermittent restimulation with PHA and irradiated feeder cells. In single color FACS analysis, the long term 032891 cell line was 99% CD3^+, 99% T cell receptor αβ positive, and 99% CD8 αβ positive. The 390I cell line was 99% CD3^+, 99% T cell receptor αβ positive, and 99% CD8 αβ positive and 6% CD4 positive. […]
FACS analysis was performed by suspending 2.5×10^5 cells in 100 μl of staining buffer (PBS, 1% BSA, 4% human serum, 0.02% NaN3) containing saturating concentrations of mAbs and incubating for 1 hr. at 4° C. […] Biotin-conjugated mAbs were used to stain the second molecule which was visualized by PE-conjugated streptavidin (Becton Dickinson & Co., Mountain View, Calif. Viable cells were analyzed using the FACScan or FACSort flow cytometer (Becton Dickinson & Co.).

IFN-γ: interferon, cytokine: the “effect on IEL-to-epithelial cell adhesion” value (shortened to “effect”) in assay [1] is “increased adhesion”.

Regarding IL-1B: interleukin, cytokine, the “effect” value in assay [1] was “no effect”.

Turning to “Recombinant human E-cadherin: recombinant human E-cadherin containing nearly the entire extracellular domain, produced in insect cells (Herrenknecht and Kemler)”, the “blocking of homophilic E-cadherin mediated cell-cell binding” value in assay [2] is reported as “failed to block”.

For the molecule “TGF-β1: transforming growth factor-beta 1”, in assay [3], the “expression of α^Eβ7 on IEL lines” value is “dramatically up-regulated”; the “expression of α^Lβ2 on IEL lines” value was “down regulated”; the “expression of β1 and its associated α chains on IEL lines” value was “little effect”.

Regarding TNF-α, the “effect” value in assay [1] is given as “no effect”.

B1: IL-4: interleukin, cytokine (protein, UniProt P05112 25-153, looked up)
Interleukin-4: HKCDITLQEIIKTLNSLTEQKTLCTELTVTDIFAASKNTTEKETFCRAATVLRQFYSHHEKDTRCLGATAQQFHRHKQLIRFLKRLDRNLWGLAGLNSCPVKEANQSTLENFLERLKTIMREKYSKCSS
With B1, in assay [1], the “effect” value is “no effect”.
